1 molecule from PMC9783881, “Synthesis and Preclinical Evaluation of Small-Molecule Prostate-Specific Membrane Antigen-Targeted Abiraterone Conjugate” (Molecules, 2022) can be followed below.

Molecules are shown by their SMILES. Read-outs that look alike come from different tables or passages of the source.

Data set [1] in a line: Water solubility (comparison in words). In kind it is physicochemical. The note with it: compared to AbiAc.
Data set [2] has as its target T1, cytochrome P450 3A4 (Homo sapiens, UniProt P08684).
T1 construct: isoenzyme activity in human liver microsomes using conventional sample substrates and HPLC-MS/MS detection; from tissue; host or cells: human liver microsomes
Kind of data set: Cytochrome inhibition in human liver microsomes, 3A4. It is filed as in vitro ADME. An excerpt:
To assess the effect of drugs on liver cytochrome activity in drug development, test systems with recombinant enzymes and fluorescent substrates as well as microsomes with metabolic substrates and HPLC-MS/MS analysis were used. The present study aimed to investigate the effect of targeted delivery drugs specific to malignant prostate cells on cytochrome P450 (CYP450) isoenzyme activity in human liver microsomes using conventional sample substrates and HPLC-MS/MS detection. Detailed methodological parameters are described in the Supplementary Material.
On the technique in general: Liver microsomes are a subcellular fraction often used to study metabolism.

For data set [3], the system named is human adult dermal fibroblasts (HDFa). Briefly: Cytotoxicity on human adult dermal fibroblasts, MTT-test. It is filed as cell-based. As for the experimental part: Human adult dermal fibroblasts (HDFa). (ATCC) were propagated in DMEM medium (Paneco) supplemented with 10% fetal calf serum (Gibco) and 1% pemicillin/streptomycin in a 5% CO2 atmosphere at 37 °C. Cytotoxicity of PSMA-Abi and AbiAc in fibroblasts were studied using MTT-test. The cells in the exponential growth phase were trypsinized, counted, and seeded at a density of 5000 cells/well in 96-well plate. Cells were incubated with both tested agents at the designated concentrations (0.4–100 μM) for 72 h; then, each well was treated with 20 μL MTT solution in PBS (5 mg/mL) and cells were incubated at least for 3 h, and formazan was dissolved in DMSO. The absorbance was measured at […] and 620 nm using Thermofischer Scientific Multiscan FC. The values for each point were calculated from 6 wells.
(Tetrazolium assays rely on reduction of a dye to a coloured formazan, in cell work by metabolically active cells.)

Data set [4] relates to 22Rv1. Kind of data set: Single cell ROS measurement with Pt-nanoelectrodes, 22Rv1. In kind it is cell-based, human. The note with it: 22Rv1, 1 h incubation, IC50 concentration. The protocol: Commercially available, disk-shaped carbon nanoelectrodes isolated in quartz (ICAPPIC Limited, London, UK) with diameters of 60–100 nm were used to prepare Pt nanoelectrodes for the amperometric detection of intracellular ROS level. Preparation of Pt-nanoelectrodes has been described in detail previously.
Briefly, a disk-shaped carbon nanoelectrode was etched in a 0.1 M NaOH, 10 mM KCl solution for 20–40 cycles of 10 seconds (from 0 to +2200 mV) to create nanocavities. Electrochemical deposition of platinum in nanocavities was achieved by cycling from 0 to −800 mV with a scan rate of 200 mV s^−1 for 8 to 10 cycles in 2 mM H2PtCl6 solution in 0.1 M hydrochloric acid. […]
The setup for amperometric measurements included a PC that was connected to a system consisting of an ADC–DAC converter Axon Digidata 1550B (Axon Instruments, Burlingame, CA, USA) and patch-clamp amplifier MultiClamp 700B (Axon Instruments, USA). […] The potential difference between the Pt-nanoelectrode and the reference electrode was recorded with the pClamp 11 software suite (Molecular Devices, Silicon Valley, CA, USA) and processed with Origin 2018 software.
PC-3 (2.0 × 10^5)/22Rv1 (3.5 × 10^5) cells were seeded in 35 mm Petri dishes, incubated under the conditions described above, and then treated for 24 h. […] Untreated cells were used as a control, which was evaluated at the beginning and at the end of the experiment. […]

T1 sequence (P08684 whole entry): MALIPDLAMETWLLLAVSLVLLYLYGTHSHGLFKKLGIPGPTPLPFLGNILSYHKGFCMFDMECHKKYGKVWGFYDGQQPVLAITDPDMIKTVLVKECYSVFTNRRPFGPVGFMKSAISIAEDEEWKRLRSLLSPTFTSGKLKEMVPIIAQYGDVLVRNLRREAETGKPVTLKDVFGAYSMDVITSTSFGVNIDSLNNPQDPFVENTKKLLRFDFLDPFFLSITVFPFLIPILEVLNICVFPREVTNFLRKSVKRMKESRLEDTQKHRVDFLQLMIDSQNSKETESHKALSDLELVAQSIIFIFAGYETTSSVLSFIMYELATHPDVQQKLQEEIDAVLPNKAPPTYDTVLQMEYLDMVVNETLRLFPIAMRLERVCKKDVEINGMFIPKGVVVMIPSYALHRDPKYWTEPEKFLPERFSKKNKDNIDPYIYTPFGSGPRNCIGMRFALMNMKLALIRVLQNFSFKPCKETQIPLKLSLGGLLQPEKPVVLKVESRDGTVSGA

The term IC50 denotes the concentration needed to halve the response being measured. The CC50 is the concentration that lowers cell viability or growth by half. A lower CC50 goes with greater toxicity to the cells. For `C[C@]12CC[C@H](OC(=O)CCCc3cn(CCCNC(=O)[C@H](Cc4ccc(O)cc4)NC(=O)[C@H](Cc4ccccc4)NC(=O)CCC(=O)NCCCCCC(=O)N(CCCC[C@H](NC(=O)N[C@@H](CCC(=O)O)C(=O)O)C(=O)O)Cc4cccc(Cl)c4)nn3)CC1=CC[C@@H]1[C@@H]2CC[C@]2(C)C(c3cccnc3)=CC[C@@H]12` [PSMA-Abi], the water solubility entry in data set [1] was “better water solubility compared to the AbiAc”. For the same molecule, the IC50 is 1.1 ± 0.2 µM in data set [2] (substrate Midazolam, read-out: IC50, 3A4-M (PSMA-Abi)) and 5.7 ± 0.8 µM in data set [2] (substrate Testosterone, read-out: IC50, 3A4-T (PSMA-Abi)). In addition, the CC50 in data set [3] (HDFa, 72 h, MTT) is more than 100 µM. For the same molecule, the “toxicity for human fibroblasts” value in data set [3] (tested concentrations 0.4–100 µM) is “inactive”. The “ROS (hydrogen peroxide) level in single cells” value in data set [4] was “significant increase in comparison with both the control and AbiAc groups”.
